Measured values: PubChem BioAssay (NCI)
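Values below derive from 48-hour exposures of cells grown in 96-well plates, with endpoints linearly interpolated between the two concentrations bracketing the appropriate inhibition level. TGI: concentration producing complete growth inhibition.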

Tests used:
Experiment in all cases: growth of human tumour cells (NCI), 48 h
A498 renal = test system: A498 renal
ACHN renal = test system: ACHN renal
CCRF-CEM leukemia = test system: CCRF-CEM leukemia
COLO 205 colon = test system: COLO 205 colon
DMS 114 small cell lung = test system: DMS 114 small cell lung
HL-60(TB) leukemia = test system: HL-60(TB) leukemia
HOP-62 NSCLC = test system: HOP-62 NSCLC
HOP-92 NSCLC = test system: HOP-92 NSCLC
HT29 colon = test system: HT29 colon
IGROV1 ovarian = test system: IGROV1 ovarian
K-562 leukemia = test system: K-562 leukemia
KM12 colon = test system: KM12 colon
KM20L2 colon = test system: KM20L2 colon
LXFL 529 NSCLC = test system: LXFL 529 NSCLC
M14 melanoma = test system: M14 melanoma
M19-MEL melanoma = test system: M19-MEL melanoma
MALME-3M melanoma = test system: MALME-3M melanoma
MOLT-4 leukemia = test system: MOLT-4 leukemia
NCI-H23 lung = test system: NCI-H23 lung
NCI-H460 lung = test system: NCI-H460 lung
NCI-H522 lung = test system: NCI-H522 lung
OVCAR-3 ovarian = test system: OVCAR-3 ovarian
OVCAR-4 ovarian = test system: OVCAR-4 ovarian
OVCAR-5 ovarian = test system: OVCAR-5 ovarian
RPMI-8226 leukemia = test system: RPMI-8226 leukemia
RXF 393 renal = test system: RXF 393 renal
SF-268 CNS = test system: SF-268 CNS
SF-295 CNS = test system: SF-295 CNS
SK-MEL-2 melanoma = test system: SK-MEL-2 melanoma
SK-MEL-28 melanoma = test system: SK-MEL-28 melanoma
SK-OV-3 ovarian = test system: SK-OV-3 ovarian
SNB-19 CNS = test system: SNB-19 CNS
SNB-75 CNS = test system: SNB-75 CNS
SNB-78 CNS = test system: SNB-78 CNS
SR leukemia = test system: SR leukemia
U251 CNS = test system: U251 CNS
UACC-257 melanoma = test system: UACC-257 melanoma
UACC-62 melanoma = test system: UACC-62 melanoma
UO-31 renal = test system: UO-31 renal
786-0 renal = test system: 786-0 renal
A549 NSCLC = test system: A549 NSCLC
CAKI-1 renal = test system: CAKI-1 renal
DLD-1 colon = test system: DLD-1 colon
EKVX NSCLC = test system: EKVX NSCLC
HCC-2998 colon = test system: HCC-2998 colon
HCT-116 colon = test system: HCT-116 colon
HOP-18 NSCLC = test system: HOP-18 NSCLC
NCI-H226 lung = test system: NCI-H226 lung
OVCAR-8 ovarian = test system: OVCAR-8 ovarian
SF-539 CNS = test system: SF-539 CNS
SK-MEL-5 melanoma = test system: SK-MEL-5 melanoma
SW-620 colon = test system: SW-620 colon
TK-10 renal = test system: TK-10 renal
DMS 273 small cell lung = test system: DMS 273 small cell lung
HCT-15 colon = test system: HCT-15 colon
LOX IMVI melanoma = test system: LOX IMVI melanoma
SN12C renal = test system: SN12C renal

## CCO[C@@H]1OC(=O)[C@@](C)(C(C)=O)[C@@H]1C
A498 renal
  TGI: > 100 µM
ACHN renal
  TGI: > 100 µM
CCRF-CEM leukemia
  TGI: 49.5 µM
COLO 205 colon
  TGI: > 100 µM
DMS 114 small cell lung
  TGI: 68.9 µM
HL-60(TB) leukemia
  TGI: 78.6 µM
HOP-62 NSCLC
  TGI: 56.6 µM
HOP-92 NSCLC
  TGI: 94.9 µM
HT29 colon
  TGI: 34.6 µM
IGROV1 ovarian
  TGI: > 100 µM
K-562 leukemia
  TGI: > 100 µM
KM12 colon
  TGI: > 100 µM
KM20L2 colon
  TGI: > 100 µM
LXFL 529 NSCLC
  TGI: 47.6 µM
M14 melanoma
  TGI: 70.4 µM
M19-MEL melanoma
  TGI: 40.9 µM
MALME-3M melanoma
  TGI: 77.5 µM
MOLT-4 leukemia
  TGI: 61.1 µM
NCI-H23 lung
  TGI: 28.7 µM
NCI-H460 lung
  TGI: > 100 µM
NCI-H522 lung
  TGI: > 100 µM
OVCAR-3 ovarian
  TGI: 31.4 µM
OVCAR-4 ovarian
  TGI: > 100 µM
OVCAR-5 ovarian
  TGI: > 100 µM
RPMI-8226 leukemia
  TGI: 48.6 µM
RXF 393 renal
  TGI: 70.2 µM
SF-268 CNS
  TGI: 44.1 µM
SF-295 CNS
  TGI: 66 µM
SK-MEL-2 melanoma
  TGI: 52 µM
SK-MEL-28 melanoma
  TGI: 29.9 µM
SK-OV-3 ovarian
  TGI: > 100 µM
SNB-19 CNS
  TGI: 68.3 µM
SNB-75 CNS
  TGI: 25.7 µM
SNB-78 CNS
  TGI: 84.9 µM
SR leukemia
  TGI: > 100 µM
U251 CNS
  TGI: 56.7 µM
UACC-257 melanoma
  TGI: 78.9 µM
UACC-62 melanoma
  TGI: 53.3 µM
UO-31 renal
  TGI: > 100 µM

## CSc1nc(NC2OC(COC(C)=O)C(OC(C)=O)C(OC(C)=O)C2OC(C)=O)c(N=C(C)C(C)=O)c(=O)n1C (stereo not drawn)
786-0 renal
  TGI: > 100 µM
A549 NSCLC
  TGI: > 100 µM
CAKI-1 renal
  TGI: > 100 µM
CCRF-CEM leukemia
  TGI: > 100 µM
COLO 205 colon
  TGI: > 100 µM
DLD-1 colon
  TGI: > 100 µM
DMS 114 small cell lung
  TGI: > 100 µM
EKVX NSCLC
  TGI: > 100 µM
HCC-2998 colon
  TGI: > 100 µM
HCT-116 colon
  TGI: > 100 µM
HL-60(TB) leukemia
  TGI: > 100 µM
HOP-18 NSCLC
  TGI: > 100 µM
HOP-62 NSCLC
  TGI: > 100 µM
HOP-92 NSCLC
  TGI: > 100 µM
HT29 colon
  TGI: > 100 µM
IGROV1 ovarian
  TGI: > 100 µM
K-562 leukemia
  TGI: > 100 µM
KM12 colon
  TGI: > 100 µM
LXFL 529 NSCLC
  TGI: > 100 µM
M14 melanoma
  TGI: > 100 µM
M19-MEL melanoma
  TGI: > 100 µM
MALME-3M melanoma
  TGI: > 100 µM
MOLT-4 leukemia
  TGI: > 100 µM
NCI-H226 lung
  TGI: > 100 µM
OVCAR-3 ovarian
  TGI: > 100 µM
OVCAR-4 ovarian
  TGI: > 100 µM
OVCAR-8 ovarian
  TGI: > 100 µM
RPMI-8226 leukemia
  TGI: > 100 µM
SF-295 CNS
  TGI: > 100 µM
SF-539 CNS
  TGI: > 100 µM
SK-MEL-2 melanoma
  TGI: > 100 µM
SK-MEL-5 melanoma
  TGI: > 100 µM
SK-OV-3 ovarian
  TGI: > 100 µM
SNB-19 CNS
  TGI: > 100 µM
SNB-78 CNS
  TGI: > 100 µM
SW-620 colon
  TGI: > 100 µM
TK-10 renal
  TGI: > 100 µM
UACC-257 melanoma
  TGI: > 100 µM
UACC-62 melanoma
  TGI: > 100 µM
UO-31 renal
  TGI: > 100 µM

## O=C(O)CCSC(=S)Nc1cccc(F)c1
786-0 renal
  TGI: > 100 µM
A498 renal
  TGI: 77.7 µM
A549 NSCLC
  TGI: > 100 µM
ACHN renal
  TGI: 83.3 µM
CAKI-1 renal
  TGI: > 100 µM
COLO 205 colon
  TGI: > 100 µM
DLD-1 colon
  TGI: > 100 µM
DMS 114 small cell lung
  TGI: 51.8 µM
DMS 273 small cell lung
  TGI: > 100 µM
EKVX NSCLC
  TGI: 81.8 µM
HCC-2998 colon
  TGI: > 100 µM
HCT-116 colon
  TGI: > 100 µM
HCT-15 colon
  TGI: > 100 µM
HOP-18 NSCLC
  TGI: > 100 µM
HOP-62 NSCLC
  TGI: > 100 µM
HOP-92 NSCLC
  TGI: 98.9 µM
HT29 colon
  TGI: > 100 µM
IGROV1 ovarian
  TGI: 80.9 µM
K-562 leukemia
  TGI: > 100 µM
KM12 colon
  TGI: > 100 µM
KM20L2 colon
  TGI: > 100 µM
LOX IMVI melanoma
  TGI: 42.6 µM
LXFL 529 NSCLC
  TGI: > 100 µM
M14 melanoma
  TGI: > 100 µM
M19-MEL melanoma
  TGI: 88.8 µM
MALME-3M melanoma
  TGI: > 100 µM
MOLT-4 leukemia
  TGI: > 100 µM
NCI-H226 lung
  TGI: > 100 µM
NCI-H23 lung
  TGI: > 100 µM
NCI-H460 lung
  TGI: > 100 µM
OVCAR-3 ovarian
  TGI: > 100 µM
OVCAR-4 ovarian
  TGI: > 100 µM
OVCAR-5 ovarian
  TGI: > 100 µM
OVCAR-8 ovarian
  TGI: > 100 µM
RPMI-8226 leukemia
  TGI: > 100 µM
RXF 393 renal
  TGI: 99.2 µM
SF-268 CNS
  TGI: > 100 µM
SF-295 CNS
  TGI: > 100 µM
SF-539 CNS
  TGI: > 100 µM
SK-MEL-28 melanoma
  TGI: 83.1 µM
SK-MEL-5 melanoma
  TGI: 43.5 µM
SK-OV-3 ovarian
  TGI: > 100 µM
SN12C renal
  TGI: > 100 µM
SNB-19 CNS
  TGI: > 100 µM
SNB-75 CNS
  TGI: > 100 µM
SNB-78 CNS
  TGI: > 100 µM
SR leukemia
  TGI: > 100 µM
SW-620 colon
  TGI: > 100 µM
TK-10 renal
  TGI: > 100 µM
U251 CNS
  TGI: > 100 µM
UACC-257 melanoma
  TGI: 53.2 µM
UACC-62 melanoma
  TGI: 29.5 µM
UO-31 renal
  TGI: > 100 µM

## O=C1[C@H](Cl)[C@H]2c3cc4ccccc4nc3Oc3ccccc3N12
786-0 renal
  TGI: > 100 µM
A498 renal
  TGI: > 100 µM
A549 NSCLC
  TGI: > 100 µM
ACHN renal
  TGI: > 100 µM
CAKI-1 renal
  TGI: > 100 µM
CCRF-CEM leukemia
  TGI: > 100 µM
COLO 205 colon
  TGI: > 100 µM
DLD-1 colon
  TGI: > 100 µM
DMS 114 small cell lung
  TGI: 70.2 µM
DMS 273 small cell lung
  TGI: > 100 µM
EKVX NSCLC
  TGI: > 100 µM
HCC-2998 colon
  TGI: > 100 µM
HCT-116 colon
  TGI: 58 µM
HCT-15 colon
  TGI: > 100 µM
HL-60(TB) leukemia
  TGI: > 100 µM
HOP-62 NSCLC
  TGI: > 100 µM
HT29 colon
  TGI: > 100 µM
IGROV1 ovarian
  TGI: > 100 µM
KM12 colon
  TGI: > 100 µM
KM20L2 colon
  TGI: > 100 µM
LOX IMVI melanoma
  TGI: > 100 µM
LXFL 529 NSCLC
  TGI: > 100 µM
M14 melanoma
  TGI: > 100 µM
M19-MEL melanoma
  TGI: > 100 µM
MALME-3M melanoma
  TGI: > 100 µM
MOLT-4 leukemia
  TGI: > 100 µM
NCI-H226 lung
  TGI: > 100 µM
NCI-H23 lung
  TGI: > 100 µM
NCI-H460 lung
  TGI: > 100 µM
NCI-H522 lung
  TGI: 88 µM
OVCAR-3 ovarian
  TGI: > 100 µM
OVCAR-4 ovarian
  TGI: > 100 µM
OVCAR-5 ovarian
  TGI: > 100 µM
OVCAR-8 ovarian
  TGI: > 100 µM
RPMI-8226 leukemia
  TGI: 65.5 µM
SF-268 CNS
  TGI: > 100 µM
SF-295 CNS
  TGI: > 100 µM
SK-MEL-2 melanoma
  TGI: > 100 µM
SK-MEL-28 melanoma
  TGI: > 100 µM
SK-MEL-5 melanoma
  TGI: > 100 µM
SK-OV-3 ovarian
  TGI: > 100 µM
SN12C renal
  TGI: > 100 µM
SNB-19 CNS
  TGI: > 100 µM
SNB-75 CNS
  TGI: 17.7 µM
SR leukemia
  TGI: > 100 µM
SW-620 colon
  TGI: > 100 µM
TK-10 renal
  TGI: > 100 µM
U251 CNS
  TGI: > 100 µM
UACC-257 melanoma
  TGI: > 100 µM
UACC-62 melanoma
  TGI: 42.5 µM
UO-31 renal
  TGI: 72.6 µM
